Data from patent US20100273748A1, “ANTIMICROBIAL THERAPY” (priority 2006, published 2010).

Experiments:
[1] = system: CD14; experiment: qPCR of CD14 mRNA in cultured keratinocytes; format: cell-based, human; details: for CD14 mRNA expression: 24 hours
Experimental: (§1) Cell culture and stimuli. Human keratinocytes were grown in serum-free EpiLife® cell culture media (Cascade Biologics; Portland, Oreg.) containing 0.06 mM Ca2+ and 1× EpiLife® defined growth supplement (EDGS) at 37° C. under standard tissue culture conditions. Stock cultures were maintained for up to five passages in this media with the addition of 50 U/mL penicillin and 50 μg/mL streptomycin. HaCaT keratinocytes were cultured in DMEM (Sigma, St. Louis, Mo.) with 10% FCS. Cells at 50-70% confluence were stimulated in fresh medium after preincubation with 1,25(OH)2 vitamin D3 (1,25D3; 0.1-100 nM, 4-24 h; Sigma). Alternatively, NHEK were stimulated in the presence of 1,25D3 (0.1-100 nM). Stimuli included TLR2,6 ligands Malp-2 (0.001-0.5 μg/ml; Alexis Biochemicals, Carlsbad, Calif.), FSL-1 (1-2 μg/ml, Invivogen, San Diego, Calif.) and zymosan (50 μg/ml; Invivogen), as well as flagellin (50 ng/ml; Alexis), LPS (1 μg/ml; Sigma), lipoteichoic acid (LTA; 10 μg/ml; Sigma), 19 kDA lipopeptide (10 μg/ml, a kind gift from S. Krutzik, Division of Dermatology, UCLA), CpG DNA (10 μg/ml; Sigma), Ca2+ (1.7 mM), LPS (1 μg/ml; Sigma), TNFα (20 ng/ml; Chemicon Temecula, Calif.) and TGFβ1 (0.1-1 μg/ml; R&D Systems, Minneapolis, Minn.). A TLR2 blocking antibody (αTLR2; clone TL2.1, 5 μg/ml, eBioscience, San Diego, Calif.) was utilized to investigate the role of TLR2 signaling. Furthermore, keratinocytes were pretreated with a vitamin D receptor antagonist (VDR-antagonist ZK159222 Schering AG; 10^-7M) or the CYP inhibitor itraconazole (ITRA; 10^-7M) before stimulation with TGFβ in the presence of 25OH vitamin D3 (25D3, 10 nM, Sigma).
(§2) Real-time RT-PCR (qPCR). RNA was extracted from cells, epidermal constructs or tissue using Trizol® and 1 μg RNA was reverse transcribed using iScript® (BioRad, Hercules, Calif.). Expression of cathelicidin and GAPDH was analysed by real-time RT-PCR. Predeveloped Taqman® assay probes (ABI, Foster City, Calif.) were used for the analyses of the expression of CYP24A1 (24-hydroxylase), CYP27B1 (1α-hydroxylase), CD14, CD36, TLR1, TLR2, TLR4, TLR6 and murine CD14. All analyses were performed in triplicate from 2-5 independent experiments in an ABI Prism® 7000 Sequence Detection System. Fold induction relative to the vehicle treated control in in vitro experiments was calculated using the comparative Ct method, where ΔΔCt is ΔCt(stimulant)-ΔCt(vehicle), ΔCt is Ct(gene)-Ct(GAPDH) and Ct is the cycle at which an arbitrary detection threshold is crossed. For quantification of transcript abundance in tissue samples target gene expression was normalized to GAPDH and compared to non-treated or non-injured skin.

[2] = system: TLR2; experiment: qPCR of TLR2 mRNA in cultured keratinocytes; format: cell-based, human; details: for TLR2 mRNA expression: 24 hours
Experimental: as §1, §2

[3] = system: cathelicidin; experiment: qPCR of cathelicidin mRNA in cultured keratinocytes; format: cell-based, human
Experimental: as §1, §2

[4] = system: Staphylococcus aureus mprF; experiment: Radial diffusion assay; format: cell-based; details: LL-37 incubated in sweat, 37° C., 6 hr
Experimental: Sweat collection and processing. Sweat was collected on paper tissues (Kimwipes, Kimberly-Clark, Ga.) from healthy volunteers after exercise. After collection, 20 ml of sweat was centrifuged at 2000 g for 15 min. at 4° C., filtered through a […] (Acrodisc syringe filter, 0.2 mm, low protein binding, Fisher scientific, Tustin, Calif.), and frozen at −80° C. For some experiments sweat was lyophilized to dryness, then suspended in 400 μl of distilled water (DW: cell culture grade, endotoxin free, GibcoBRL, Grand island, NY). For analysis of LL37 processing by sweat, 1.6 nmol of LL-37 synthetic peptide was incubated in 50 ml of sweat for 0, 1, 6, 24 hrs at 37° C. or 4° C. In some experiments proteinase inhibitors including; mixed protease inhibitor cocktail (1tab/10 ml, Roche, Indianapolis, Ind.), […] Bestatin, 10 mg/ml E-64, 10 mg/ml Aprotinin, (Sigma, St Louis, Mo.); 100 mM AEBSF, 100 mM Neutrophil elastase inhibitor (NEI) or 100 mM leukocyte elastase inhibitor (LEI) (Calbiochem, San Diego, Calif.) were added during incubation. After incubation, 2 ml was assayed by radial diffusion assay to determine antibacterial activity. For analysis by HPLC 32 nmoles LL-37 was incubated in 100u1. To control for potential contamination from paper tissues, parallel processing was done on tissues soaked in phosphate-buffered saline (PBS:137 mM NaCl, 2.7 mM KCL, 4.3 mM Na2HPO4-H2O, 1.4 mM KH2PO4, pH 7.4). No antimicrobial activity was detectable in these preparations. Protein concentrations were evaluated by BCA assay (protein assay reagent, Pierce, Rockford, Ill.) or Bradford protein assay (Bio-Rad, Hercules, Calif.) according to manufacture's instructions. Human tissue and blood collection was approved by the UCSD Human Research Protection Program.
Antimicrobial assays. For screening of antimicrobial activity of HPLC fractions, radial diffusion assay was used. Lyophilized HPLC fractions were dissolved in DW (GibcoBRL, Grand Island, N.Y.), and tested against Staphylococcus aureus mprF. Thin plates (1 mm) of 1% agarose in 0.5% tryptone containing approximately 1×10^6 cells/ml of S. aureus mprF were used. 1 mm wells were punched in the plates and […] of samples dissolved in tissue culture grade sterile water were loaded in each well.

[5] = system: acetylated histone H4; experiment: Histone H4 acetylation in keratinocytes (immunofluorescence, Western blot); format: cell-based, human; details: NHEK stimulated with butyrate or TLR ligand
Experimental: Panel a; Immunofluorescence staining of acetylated histone H4 protein in NHEK treated with HDACi in the presence or absence of 1,25D3. […] Panel b: Western blot of acetylated histone 4 from keratinocytes treated with the HDACi butyrate or TLR agonists. […] Bar=30 μM.
The abundance of acetylated histone was directly measured to confirm the inhibitory effects of butyrate and TSA on HDACs. […] To determine if changes in histone acetylation occur upon stimulation of keratinocytes with TLR ligands NHEK were stimulated with different TLR ligands and histone acetylation was assessed.

[6] = system: Staphylococcus aureus; experiment: Bacterial growth inhibition (turbidity OD600) with or without carbonate; format: cell-based; details: for increase of LL-37 antimicrobial activity by carbonate containing compound: medium with 32 μM LL-37, pH 7.4, KHCO3 and Na2CO3 at 50 mM
[7] = system: S. aureus DmprF; experiment: Antimicrobial activity of keratinocyte lysates (bacterial growth, OD600); format: cell-based, Staphylococcus aureus; details: versus unstimulated keratinocytes
Experimental: Panel a: NHEKs were stimulated with 1,25D3 (10^−9-10^−7 M) in the presence of the HDAC inhibitor butyrate (BUT; 2 mM) for 24 hours. mRNA abundance was determined by real-time qPCR for cathelicidin and glyceraldehyde-3-phosphate dehydrogenase and normalized to vehicle-treated controls. […] Data shown are means (7SD) of the results from a single stimulation experiment performed in triplicates and are representative of at least three independent experiments (**P<0.01; ***P<0.001; two-way analysis of variance). Panel b: The HDAC inhibitor TSA (200 ng ml^−1) induces cathelicidin in the presence of 1,25D3 (10^−8M). Expression of cathelicidin is dependent on a functional VDR, as pretreatment with the VDR antagonist ZK159222 (10^−7 M) inhibits induction of cathelicidin with BUT (2 mM) in the presence of 1,25D3 (10^−8 M) after 24 hours. Expression of cathelicidin was determined by qPCR as described in Panel a. (*P<0.05; Student's t-test). Panel c: Increased transcript correlates with enhanced cathelicidin protein expression after HDAC inhibitor and 1,25D3 stimulation. NHEKs grown on chamber slides were stimulated with the vehicle, 1,25D3 (10^−8M), BUT (2 mM), or the combination for 24 hours. Cells were stained with a polyclonal anti-LL-37 antibody (followed by an FITC-coupled secondary antibody) and nuclei detected with 4,6-diamidino-2-phenylindole (Bar=30 μM). […] NHEKs were stimulated with 1,25D3 (10^−8M) in combination with the HDAC inhibitor BUT (2 mM) for 24 hours, cells harvested and cell lysates co-incubated with S. aureus DmprF, and bacterial growth monitored over time to determine antimicrobial activity. Media not containing cell lysates or containing cell lysates from unstimulated cells were used as controls.

[8] = system: C. albicans; experiment: Liquid assay, minimum fungicide concentration; format: cell-based, Candida albicans
Experimental: Action against the C. albicans was determined in Dixon medium (0.6% Peptone, 4% Malt Extract, 1% Glucose, 0.1% Ox Bile, 1% Tween-80) in sterile 96-well microtiter plates (Corning Inc., Corning, N.Y.) at a final volume of 50 ml. […] Microtiter plates were incubated at 37° C. for 24 h with peptides, then plated on Dixon agar to determine the MFC (minimum fungicide concentration).

[9] = system: wild-type S. aureus (clinical isolate); experiment: Radial diffusion assay; format: cell-based
[10] = system: enteroinvasive E. coli 029; experiment: Radial diffusion assay; format: cell-based
[11] = 25D3 (10 nM) or TGF (1 μg/ml) alone
[12] = 25D3 (10 nM) together with TGF (1 μg/ml)
[13] = pretreatment with antagonist 10^−7M
[14] = radial diffusion and solution assay

C=C1CC[C@H](O)C/C1=C/C=C1\CCC[C@]2(C)[C@@H]([C@H](C)CCCC(C)(C)O)CC[C@@H]12 [25D3, 25OH vitamin D3]
CD14 mRNA expression [1, 11]: Neither 25D3 nor TGF alone affected expression
CD14 mRNA expression [1, 12]: simultaneous addition induced
TLR2 mRNA expression [2, 11]: Neither 25D3 nor TGF alone affected expression
TLR2 mRNA expression [2, 12]: simultaneous addition induced
cathelicidin mRNA expression ([3]; 25D3 (10 nM) or TGF (1 μg/ml) alone, 24 hours): Neither 25D3 nor TGF alone affected expression
cathelicidin mRNA expression ([3]; 25D3 (10 nM) together with TGF (1 μg/ml), 24 hours): simultaneous addition induced

NCCc1ccc(S(=O)(=O)F)cc1 [AEBSF]
blocking of the gain in LL-37 antimicrobial activity in sweat by protease inhibitor [4]: most effective in blocking the increase in antimicrobial activity

CCCc1nc2c(N)nc3ccccc3c2s1 [CL075]
acetylation of histone H4 [5]: did not change histone acetylation

CC(C)Cn1cnc2c(N)nc3ccccc3c21 [Imiquimod]
acetylation of histone H4 [5]: did not change histone acetylation

O=C([O-])O.[K+] [KHCO3]
increase of LL-37 antimicrobial activity by carbonate containing compound [6]: also increased antimicrobial activity

O=C([O-])[O-].[Na+].[Na+] [Na2CO3]
increase of LL-37 antimicrobial activity by carbonate containing compound [6]: also increased antimicrobial activity

CC(/C=C/C(=O)NO)=C\[C@@H](C)C(=O)c1ccc(N(C)C)cc1 [Trichostatin A]
effect of HDAC inhibitor on 1,25D3 induced cathelicidin ([3]; TSA 200 ng ml^−1 with 1,25D3 (10^−8M)): significantly increased 1,25D3 induced cathelicidin

C=C1/C(=C\C=C2/CCC[C@]3(C)[C@@H]([C@H](C)/C=C/[C@@H](O)C4(C(=O)OCCCC)CC4)CC[C@@H]23)C[C@@H](O)C[C@@H]1O [VAZ]
block of CD14 induction by TGF plus 25D3 [1, 13]: blocked this effect
block of TLR2 induction by TGF plus 25D3 [2, 13]: blocked this effect
effect of VDR antagonist on cathelicidin induction by HDAC inhibitor plus 1,25D3 ([3]; ZK159222 10^−7 M, BUT 2 mM, 1,25D3 10^−8 M, 24 hours): decreased the capacity of the HDAC inhibitor to increase cathelicidin
block of cathelicidin induction by TGF plus 25D3 [3, 13]: blocked this effect

C=C1CC[C@H](O)C/C1=C/C=C1\CCC[C@]2(C)[C@@H]([C@H](C)CCCC(C)C)CC[C@@H]12 [Vitamin D3]
antimicrobial activity of stimulated keratinocytes against Staphalococcus aureus [7]: enhanced antimicrobial activity
expression of cathelicidin ([3]; normal human keratinocytes and HaCat cell line): induced the expression of cathelicidin

Aprotinin
blocking of the gain in LL-37 antimicrobial activity in sweat by protease inhibitor [4]: most effective in blocking the increase in antimicrobial activity

FSL-1
cathelicidin induction by TLR2,6 ligand ([3]; in the presence of 1,25D3 (100 nM)): capable of inducing cathelicidin

Human Beta Defensin-2
enhancement of peptide activity by 50 mM NaHCO3 (EF) ([6]; 20% TSB, 10% FBS, 1 mM NaH2PO4, 150 mM NaCl, pH 7.4): enhanced

KRIVQRIKDFLRNLVPRTES [KR-20, 20 amino acid cathelicidin derivative generated from LL-37 in sweat]
fungicidal activity against Candida albicans compared to LL-37 [8]: increased fungicidal activity
Radial Diffusion Assay, minimal inhibitory concentration (MIC), S. aureus (wt) [9]: 4 μm
Radial Diffusion Assay, minimal inhibitory concentration (MIC), E. coli (O29)) [10]: 4 μm

PR-39: porcine cathelicidin antimicrobial peptide (RRRPRPPYLPRPRPPPFFPPRLPPRIPPGFPPRFPPRFP; UniProt P80054 131-169, looked up)
change of minimal inhibitory concentration (MIC) by NaHCO3 ([6]; 20% TSB, 1 mM NaH2PO4, with or without 50 mM NaHCO3, pH 7.4): greatly reduced

Poly(I:C)
acetylation of histone H4 [5]: did not change histone acetylation

RKSKEKIGKEFKRIVQRIKDFLRNLVPRTES [RK-31, cathelicidin peptide generated from LL-37 in sweat]
fungicidal activity against Candida albicans compared to LL-37 [8]: increased fungicidal activity
action against wild-type S. aureus compared to LL-37 [9, 14]: greatly increased action
action against E. coli compared to LL-37 [10, 14]: greatly increased action

flagellin
acetylation of histone H4 [5]: did not change histone acetylation
cathelicidin expression in response to TLR ligand ([3]; keratinocytes pretreated with 1,25D3 0.1 nM 24 hours, then TLR ligand 24 hours): not to other TLR agonists
